Earlier results, collected in patent US10563162B2, “Microbial electro-photosynthesis” (Arizona Board of Regents on behalf of Arizona State …, priority 2014, dated 2020).

settings: listed property of redox mediator / natural electron acceptor; no method given

Compound | midpoint potential (E^0,) | number of electrons transported (# e−)
CC1=C(C)C(=O)C(C)=C(C)C1=O [Duroquinone] | 5 mV | 2
Thionine | 64 mV | 2
O=C1C=CC(=O)C=C1 [Benzoquinone] | 280 mV | 2
CC(C)=CCC/C(C)=C/CC/C(C)=C/CC/C(C)=C/CC/C(C)=C/CC/C(C)=C/CC/C(C)=C/CC/C(C)=C/CC/C(C)=C/CC1=CC(=O)C(C)=C(C)C1=O [Plastoquinone] | 80 mV | 2
CN(C)c1ccc2nc3ccc(=[N+](C)C)cc-3sc2c1 [Methylene Blue] | 11 mV | 2
